Results published in patent publication US20240391964A1, “COMPOSITIONS AND METHODS FOR THE TREATMENT OF CANCER” (The University of Western Australia, priority 2020, published 2024).

Legend:
T11 tumours = assay: T11 allograft in BALB/c mice, intratumoral treatment; format: in vivo; settings: day 14 post-inoculation, mean±SEM
Method: To investigate the efficacy of the combination of melittin and docetaxel in reducing TNBC growth in vivo, T11 cells were transplanted in BALB/c mice. This allograft model recapitulates highly aggressive, TNBC claudin-low disease in mice with an intact immune system. Three days after the generation of T11 tumours (˜50 mm^3), mice were randomized into four groups (n=12 mice/group) and treated intratumorally with either vehicle, melittin (5 mg/Kg), docetaxel (7 mg/Kg), or a combination of melittin (5 mg/Kg) and docetaxel (7 mg/Kg). Mice were treated every two days from day three, with a total of seven treatments.
The therapeutic effects of melittin and docetaxel were validated in tumour tissues at day 14 post-inoculation of T11 cells by immunohistochemistry and immunofluorescence (FIG. 14A).

COV362 cells = format: cell-based; settings: COV362, 24 h
Method: (§1) The OVCAR3 and COV362 ovarian cancer cell lines were treated with active RGD1-melittin and mutant RGD1-melittin (DEDE-RGD1-melittin). The COV362 cells were cultured in DMEM low glucose medium supplemented with 10% FBS. The OVCAR3 cells were grown in RPMI medium supplemented with 20% FBS. Cells were seeded overnight at a density of 5000 cells/p96-well plate and treated with active RGD1-melittin and mutant RGD1-melittin (RGD1-DEDE melittin), for 24 h at concentrations up to 20 µM. After treatments, cell viability was assessed using the CellTiter-Glo® assay according to the manufacturer's protocol (Promega; NSW, Australia). Luminescence signals were measured using the EnVision Multilabel Plate Reader (PerkinsElmer Inc.; Waltham, MA, USA). IC50s were calculated and transformed 95% confidence intervals provided by GraphPad Prism 6 software analysis (GraphPad Software Inc., San Diego, CA, USA).

OVCAR3 cells = format: cell-based; settings: OVCAR3, 24 h
Method: as §1

SUM159 cells [1] = tested on: SUM159 cells
Method: FIG. 5C presents cell viability assays of human dermal fibroblasts (HDFa) and SUM159 treated with melittin (top) and RGD1-melittin (bottom) for 24 hours.
(§2) To assess anticancer efficacy and selectivity, both venom from European honeybees collected in Perth, Australia and melittin peptide were evaluated in dose-response assays in a panel of cell lines representative of the intrinsic breast cancer subtypes and in non-transformed cells.

[2] = tested on: p-HER2, p-EGFR, p-p44/42 MAPK, p-Akt in SKBR3 cells; assay: Immunoblotting of RTK signalling, SKBR3; format: cell-based, human; settings: SKBR3, EGF exposed, IC50, from 5 minutes onwards
[3] = tested on: human TNBC and HER2-enriched breast cancer cells; assay: Cell viability dose-response assay, TNBC and HER2-enriched panel; format: cell-based; settings: range over human TNBC and HER2-enriched breast cancer cells
Method: as §2
Data are presented as mean±SEM in ng/μL or μM (to two decimal places). Experiments were performed in biological triplicate.

SUM159 cells [4] = assay: Cleaved caspase-3 immunoblot; format: cell-based, human
[5] = tested on: EGFR and MAPK phosphorylation in MDA-MB-231 cells; assay: Immunoblotting of RTK signalling, MDA-MB-231; format: cell-based, human; settings: MDA-MB-231, EGF treatment
Method: To characterize the effects on signaling pathways in another TNBC model, immunoblotting was conducted on MDA-MB-231 cells, in which EGF treatment phosphorylated EGFR and induced EGFR expression (FIG. 8C). […] Other growth factor receptors such as VEGFR1 may mediate the activation of these pathways.

[6] = tested on: p-EGFR, p-Akt, p-p44/42 MAPK in SUM159 cells; assay: Immunoblotting of RTK signalling, SUM159; format: cell-based, human
T11 cells [7] = assay: Cell viability, combination with docetaxel; format: cell-based, murine; settings: T11, 48 hours
Method: FIG. 15 presents the results of cell viability assays of T11 breast cancer cells treated with melittin or RGD1-melittin alone and in combination with docetaxel for 48 hours. Representative plots of the combination treatments are presented as mean±SEM.
The murine p53 TNBC cell line T11 was treated with docetaxel in combination with either melittin or RGD1-melittin, and cell viability assays were conducted to determine the combination effect between the treatments (FIG. 15).

[8] = tested on: HDFa, SKBR3 and SUM159 cells; assay: Cell viability kinetics over one hour; format: cell-based, human; settings: IC50 concentrations
SUM159 cells [9] = assay: Annexin V flow cytometry; format: cell-based, human; settings: IC50 concentration, 60 minutes, mean±SEM
Method: To quantify the apoptotic, necrotic or dead cell populations after treatment, flow cytometry for the detection of Annexin V (an early marker of apoptosis) was performed.

T11 cells [10] = assay: Cell viability, combination with omomyc; format: cell-based, murine; settings: T11, 24 hours
Method: FIG. 16 presents the results of cell viability assays of T11 breast cancer cells treated with melittin or RGD1-melittin alone and in combination with omomyc for 24 hours. Representative plots of the combination treatments are presented as mean±SEM.
The murine p53 TNBC cell line T11 was treated with omomyc in combination with either melittin or RGD1-melittin, and cell viability assays were conducted to determine the combination effect between the treatments (FIG. 16).

[11] = tested on: JAK/STAT pathway in SUM159 cells; assay: Western blot of JAK/STAT pathway; format: cell-based, human; settings: 60-minute treatment

SMILES | PD-L1 expression in tumours (T11 tumours) | tumour cell proliferation (Ki-67 expression) (T11 tumours) | IC50 (COV362 cells) | IC50 (OVCAR3 cells) | ratio of the IC50s of HDFa/SUM159 (SUM159 cells [1]; 24 hours, mean±SEM) | half-maximal inhibitory concentration (IC50) (SUM159 cells [1]; TNBC SUM159) | p-HER2 (Tyr1248), p-EGFR (Tyr1068), p-p44/42 MAPK (Thr202/Tyr204), p-Akt (Ser473 and Thr308) [2] | IC50 [3] | induction of apoptosis (cleaved caspase-3) (SUM159 cells [4]; 24 hours) | induction of cleaved caspase-3 (apoptosis) (SUM159 cells [4]; IC50 concentration, 18 and 24 hours) | phosphorylation of EGFR and MAPK [5] | p-EGFR (Tyr1068) ([6]; SUM159, 10-20 minutes) | p-p44/42 MAPK (Thr202/Tyr204) ([6]; SUM159, 10-20 minutes) | p-Akt (Ser473 and Thr308) ([6]; SUM159, melittin all time points, venom 10-20 minutes) | combination effect with docetaxel on cell viability (T11 cells [7]) | cell viability over up to one hour [8] | late apoptotic/necrotic cells (SUM159 cells [9]) | combination effect with omomyc on cell viability (T11 cells [10]) | effects on JAK/STAT pathway inhibitors [11]
CC(=O)O[C@@]12CO[C@@H]1C[C@H](O)[C@@]1(C)C(=O)[C@H](O)C3=C(C)[C@@H](OC(=O)[C@H](O)[C@@H](NC(=O)OC(C)(C)C)c4ccccc4)C[C@@](O)([C@@H](OC(=O)c4ccccc4)[C@H]21)C3(C)C [docetaxel] | 84.3±0.6% | 21.0±1.3% |  |  |  |  |  |  |  |  |  |  |  |  |  |  |  |  | 
CC[C@H](C)[C@H](NC(=O)CN)C(=O)NCC(=O)N[C@@H](C)C(=O)N[C@H](C(=O)N[C@@H](CC(C)C)C(=O)N[C@@H](CCCCN)C(=O)N[C@H](C(=O)N[C@@H](CC(C)C)C(=O)N[C@H](C(=O)N[C@H](C(=O)NCC(=O)N[C@@H](CC(C)C)C(=O)N1CCC[C@H]1C(=O)N[C@@H](C)C(=O)N[C@@H](CC(C)C)C(=O)N[C@H](C(=O)N[C@@H](CO)C(=O)N[C@@H](Cc1c[nH]c2ccccc12)C(=O)N[C@H](C(=O)N[C@@H](CCCCN)C(=O)N[C@@H](CCCNC(=N)N)C(=O)N[C@@H](CCCCN)C(=O)N[C@@H](CCCNC(=N)N)C(=O)N[C@@H](CCC(N)=O)C(=O)N[C@@H](CCC(N)=O)C(N)=O)[C@@H](C)CC)[C@@H](C)CC)[C@@H](C)O)[C@@H](C)O)C(C)C)C(C)C [melittin] | 52.9±2.4% | 31.7±1.3% | 7.81 µM | 18.2 µM | 1.76±0.04 | 4.24 mg/L | strongly downregulated | 0.94 to 1.49 µM | confirmed the anticancer activity | higher level of apoptosis than honeybee venom | reduced the phosphorylation of EGFR and MAPK | strongly down-regulated | upregulated | suppressed | beneficial effect when combined with docetaxel | significantly reduced the viability of both breast cancer cell lines compared to the normal cells from 10 minutes onwards | 23.6±5.7% | beneficial effect when combined with omomyc | No modulatory effects
